In patent US20260317319A1, “NOVEL ERGOLINES AND METHODS OF TREATING MOOD DISORDERS” (Gilgamesh Pharma Inc., priority 2023, published 2026):
Where two headings read alike, the source gives them in different places.

Tests used:
[1] = molecular target: T1, 5-HT1A receptor (Homo sapiens, UniProt P08908); experiment: cell-based; conditions: agonist, Ca2+ flux; for Emax: CHO, CHO cells with Gα15, max dose, read-out: 5-HT1A % Act @ Max Dose; for EC50: CHO cells with Gα15
T1 construct: expressed in transfected cells; host or cells: CHO cells, stably transfected
T1 sequence (P08908 1-422): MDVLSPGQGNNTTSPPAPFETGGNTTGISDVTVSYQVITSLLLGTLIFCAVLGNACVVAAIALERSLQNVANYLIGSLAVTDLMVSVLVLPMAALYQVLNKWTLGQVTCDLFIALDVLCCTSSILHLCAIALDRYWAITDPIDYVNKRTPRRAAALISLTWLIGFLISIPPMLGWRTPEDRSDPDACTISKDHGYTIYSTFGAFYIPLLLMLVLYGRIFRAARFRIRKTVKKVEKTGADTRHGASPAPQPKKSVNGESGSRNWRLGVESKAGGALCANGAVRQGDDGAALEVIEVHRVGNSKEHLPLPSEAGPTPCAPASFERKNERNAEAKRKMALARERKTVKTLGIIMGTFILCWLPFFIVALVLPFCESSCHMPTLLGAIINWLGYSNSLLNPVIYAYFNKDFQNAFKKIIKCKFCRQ
Method in brief: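 Receptor agonism was assessed as intracellular calcium mobilization in stably transfected cells, with CHO cells additionally carrying Gα15 for the 5-HT1A readout. Calcium was monitored with Fluo-4 Direct dye.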

[2] = molecular target: T2, 5-HT2B receptor (Homo sapiens, UniProt P41595); experiment: cell-based; assay type: cell-based; conditions: Ca2+ flux; for Emax: HEK293, agonist, HEK293, max dose, read-out: 5-HT2B % Act @ Max Dose; for EC50: agonist, HEK293
T2 construct: expressed in transfected cells; host or cells: HEK293, stably transfected
T2 sequence (P41595 whole entry): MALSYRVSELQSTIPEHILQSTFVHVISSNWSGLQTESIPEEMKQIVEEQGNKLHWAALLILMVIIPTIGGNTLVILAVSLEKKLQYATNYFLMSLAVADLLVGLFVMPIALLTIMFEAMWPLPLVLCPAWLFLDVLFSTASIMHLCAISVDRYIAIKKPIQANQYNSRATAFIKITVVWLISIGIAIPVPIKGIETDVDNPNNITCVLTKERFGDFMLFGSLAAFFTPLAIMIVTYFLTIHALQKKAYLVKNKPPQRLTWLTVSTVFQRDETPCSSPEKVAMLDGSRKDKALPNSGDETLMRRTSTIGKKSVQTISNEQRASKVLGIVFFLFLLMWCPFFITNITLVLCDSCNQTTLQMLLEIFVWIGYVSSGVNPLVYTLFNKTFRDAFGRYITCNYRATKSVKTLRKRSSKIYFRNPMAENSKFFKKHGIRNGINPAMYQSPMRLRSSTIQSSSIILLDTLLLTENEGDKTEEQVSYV
Method in brief: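 FLIPR Tetra fluorescence read-out of calcium flux after compound addition. Receptor-expressing stable lines were used (HEK293 for 2A/2B; CHO with Gα15 for 1A), dye-loaded with Fluo-4 Direct and 2.5 mM final probenecid, 50 min at 37 °C.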

[3] = molecular target: T3, 5-HT2A receptor (Homo sapiens, UniProt P28223); experiment: biochemical; assay type: binding; set-up: expressed in transfected cells; host or cells: HEK293, stably transfected; conditions: for Ki: [3H]ketanserin 1 nM, HEK293 stable cell line, 1 h, 25 °C
T3 sequence (P28223 whole entry): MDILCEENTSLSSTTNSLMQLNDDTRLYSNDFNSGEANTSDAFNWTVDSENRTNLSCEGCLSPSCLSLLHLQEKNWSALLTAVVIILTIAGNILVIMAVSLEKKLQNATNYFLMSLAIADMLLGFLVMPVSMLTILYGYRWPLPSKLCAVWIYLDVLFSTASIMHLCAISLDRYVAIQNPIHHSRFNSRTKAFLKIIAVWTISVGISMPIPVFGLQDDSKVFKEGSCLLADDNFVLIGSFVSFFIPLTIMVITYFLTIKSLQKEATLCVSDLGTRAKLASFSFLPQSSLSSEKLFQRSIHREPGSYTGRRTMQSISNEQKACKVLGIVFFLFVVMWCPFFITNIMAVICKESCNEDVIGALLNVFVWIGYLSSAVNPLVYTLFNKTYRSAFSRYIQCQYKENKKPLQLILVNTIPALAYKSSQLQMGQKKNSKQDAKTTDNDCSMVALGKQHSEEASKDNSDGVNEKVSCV
Method in brief: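 Values reflect [^3H]ketanserin binding competition. Assay conditions were adapted from the literature.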

[4] = molecular target: T3, 5-HT2A receptor; experiment: cell-based; assay type: cell-based; set-up: expressed in transfected cells; host or cells: HEK293, stably transfected; conditions: Ca2+ flux; for Emax: HEK293, agonist, HEK293, max dose, read-out: 5-HT2A % Act @ Max Dose; for EC50: agonist, HEK293
Method in brief: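 Using HEK293 lines for the 5-HT2 subtypes and Gα15-coupled CHO cells for 5-HT1A, compounds were tested as agonists. Fluorescent Ca2+ signal followed dye loading (Fluo-4 Direct, 2.5 mM final probenecid, 50 min, 37 °C).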

[5] = molecular target: T4, 5-HT1B receptor (Homo sapiens, UniProt P28222); experiment: cAMP accumulation functional assay at 5-HT1B; assay type: cell-based; conditions: agonist, cAMP accumulation; for Emax: max dose, read-out: 5-HT1B % Act @ Max Dose
T4 construct: expressed in transfected cells
T4 sequence (P28222 whole entry): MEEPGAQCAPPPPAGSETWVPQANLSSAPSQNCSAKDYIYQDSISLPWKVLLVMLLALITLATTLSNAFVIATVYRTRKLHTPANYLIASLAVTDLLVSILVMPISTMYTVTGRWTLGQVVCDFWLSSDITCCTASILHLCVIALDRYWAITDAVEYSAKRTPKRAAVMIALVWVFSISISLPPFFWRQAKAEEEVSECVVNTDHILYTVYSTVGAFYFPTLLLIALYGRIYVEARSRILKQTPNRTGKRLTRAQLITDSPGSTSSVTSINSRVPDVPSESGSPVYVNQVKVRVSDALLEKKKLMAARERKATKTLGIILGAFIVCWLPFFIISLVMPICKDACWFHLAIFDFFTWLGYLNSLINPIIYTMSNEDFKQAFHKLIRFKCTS
Protocol: Functional Assay at 5-HT1B. Agonist activity at 5-HT1B was determined using a CAMP accumulation protocol at WuXi AppTec (Hong Kong) Limited according to their standard protocols. Briefly, stably transfected cells were plated in an OptiPlate-384 well plate, incubated at RT for 60 mins, and cAMP standard solution (800 nM, 10 μL) was added to the blank well. Then, 10 μL detection reagent was added to each well, the plate incubated for 60 mins at RT, and the plate read using En Vision.

[6] = in vitro; assay type: in vitro ADME, rat; conditions: rat, microsomes, RLM (male Sprague-Dawley) 0.50 mg/mL, NADPH 1 mM, 1 μM compound, pH 7.4, 37° C., 60 min; for microsomal CLint: read-out: Intrinsic clearance (Clint); for half-life: read-out: half-life (t1/2)
Excerpt: RLM Stability Pooled RLM from male Sprague-Dawley rats (Xenotech R1000) were used.

[7] = in vitro; assay type: in vitro ADME, human; conditions: human, microsomes, HLM 0.50 mg/mL, NADPH 1 mM, 1 μM compound, pH 7.4, 37° C., 60 min; for microsomal CLint: read-out: Intrinsic clearance (Clint); for half-life: read-out: half-life (t1/2)
[8] = in vitro; assay type: in vitro ADME, mouse; conditions: mouse, microsomes, MLM (male CD-1) 0.50 mg/mL, NADPH 1 mM, 1 μM compound, pH 7.4, 37° C., 60 min; for microsomal CLint: read-out: Intrinsic clearance (Clint); for half-life: read-out: half-life (t1/2)
Excerpt: MLM Stability Pooled MLM from male CD-1 mice (BIOIVT M00501) were used.

[9] = molecular target: T3, 5-HT2A receptor; experiment: cell-based; assay type: cell-based; conditions: agonist, beta-arrestin recruitment; for EC50: PathHunter, read-out: 5-HT2A Arrestin EC50; for Emax: max dose, read-out: 5-HT2A Arrestin % Act @ Max Dose
Protocol: Arrestin Functional Assay at 5-HT2A. Recruitment of beta-arrestin was determined using a PathHunter assay at Eurofins DiscoverX (Fremont, CA) according to their standard protocols. PathHunter GPCR beta-arrestin assays take advantage of DiscoverX's proprietary Enzyme Fragment Complementation technology. The GPCR is fused in frame with a small enzyme donor fragment ProLink™ (PK) and co-expressed in cells stably expressing a fusion protein of beta-arrestin and the larger, N-terminal deletion mutant of beta-galactosidase. Activation of the GPCR (5-HT2A receptor in this case) stimulates binding of beta-arrestin to the PK-tagged GPCR and forces complementation of the two enzyme fragments, resulting in the formation of an active beta-galactosidase enzyme. This interaction leads to an increase in enzyme activity that can be measured using chemiluminescent PathHunter Detection Reagents. Briefly, PathHunter cells expressing 5-HT2A receptors were seeded in a volume of 20 μL into 384-well plates and incubated at 37° C. for the appropriate time prior to testing. […] Plates were then imaged on a microplate reader and the agonist activity was calculated using the following formula: % Activity=100%×(mean RLU of test sample-mean RLU of vehicle control)/(mean MAX control ligand-mean RLU of vehicle control), where RLU=relative light units.

[10] = molecular target: T5, 5-HT2C receptor (Homo sapiens, UniProt P28335); experiment: cell-based; conditions: read-out: 5-HT2C % Act @ Max Dose
T5 sequence (P28335 33-458): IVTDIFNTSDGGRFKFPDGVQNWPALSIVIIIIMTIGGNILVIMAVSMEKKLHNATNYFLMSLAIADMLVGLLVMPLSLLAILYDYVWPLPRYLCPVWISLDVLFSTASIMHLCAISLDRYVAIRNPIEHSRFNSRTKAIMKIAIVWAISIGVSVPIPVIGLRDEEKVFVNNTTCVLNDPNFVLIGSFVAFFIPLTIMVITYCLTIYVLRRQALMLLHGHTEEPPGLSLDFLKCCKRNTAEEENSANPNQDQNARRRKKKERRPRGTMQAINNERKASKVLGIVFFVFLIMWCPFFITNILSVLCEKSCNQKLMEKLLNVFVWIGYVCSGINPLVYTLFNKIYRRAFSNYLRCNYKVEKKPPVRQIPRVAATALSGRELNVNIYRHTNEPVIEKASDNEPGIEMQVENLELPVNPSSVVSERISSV

Structure (SMILES)	Emax [1]	Emax [2]	potency in receptor binding ([3]; radioligand binding, 5-HT2A)	Emax [4]	Emax [5]	microsomal CLint [6]	half-life [6]	EC50 [1]	microsomal CLint [7]	half-life [7]	EC50 [2]	Ki [3]	microsomal CLint [8]	half-life [8]	EC50 [4]	EC50 [5]	EC50 [9]	Emax [9]	Emax [10]
CCN(CC)C(=O)[C@@H]1C=C2c3cccc4c3C(CN4)C[C@H]2N(C)C1 (mixture of isomers) [Compound 37, (6aR,9R)—N,N-diethyl-7-methyl-4,5,5a,6,6a,7,8,9-octahydroindolo[4,3-fg]quinoline-9-carboxamide]	109%	24.1%	reduced in potency compared to their dehydro counterparts	76.4%	90.7%	–	–	–	–	–	–	–	–	–	–	–	–	–	–
CCN(CC)C(=O)[C@@H]1C=C2c3cccc4[nH]cc(c34)C[C@H]2N(Cc2ccncc2)C1 [Compound 51, (6aR,9R)—N,N-diethyl-7-(pyridin-4-ylmethyl)-4,6,6a,7,8,9-hexahydroindolo[4,3-fg]quinoline-9-carboxamide]	100%	19.3%	–	102%	89.1%	73.6 µL/min/mg	18.8 min	1.46 µM	34.3 µL/min/mg	40.4 min	> 100 µM	15.6 nM	480 µL/min/mg	2.9 min	97.8 nM	190 nM	–	–	–
CCN(CC)C(=O)[C@@H]1C=C2c3cccc4[nH]cc(c34)C[C@H]2N(Cc2cccnc2)C1 [Compound 55, (6aR,9R)—N,N-diethyl-7-(pyridin-3-ylmethyl)-4,6,6a,7,8,9-hexahydroindolo[4,3-fg]quinoline-9-carboxamide]	108%	25.7%	–	87.8%	82.5%	103 µL/min/mg	13.4 min	4.09 µM	56 µL/min/mg	24.8 min	> 100 µM	39.7 nM	543 µL/min/mg	2.6 min	158 nM	575 nM	–	–	–
CCN(CC)C(=O)[C@@H]1C=C2c3cccc4[nH]cc(c34)C[C@H]2N(Cc2ccc(F)c(OC)c2)C1 [Compound 60, (6aR,9R)—N,N-diethyl-7-(4-fluoro-3-methoxybenzyl)-4,6,6a,7,8,9-hexahydroindolo[4,3-fg]quinoline-9-carboxamide]	53.1%	23.8%	–	102%	31%	152 µL/min/mg	9.1 min	36.4 µM	69.1 µL/min/mg	20.1 min	> 100 µM	6.18 nM	295 µL/min/mg	4.7 min	1380 nM	> 10000 nM	–	–	–
CCNC(=O)[C@@H]1C=C2c3cccc4[nH]cc(c34)C[C@H]2N(Cc2cccc(OC)c2)C1 [Compound 63, (6aR,9R)—N-ethyl-7-(3-methoxybenzyl)-4,6,6a,7,8,9-hexahydroindolo[4,3-fg]quinoline-9-carboxamide]	88.4%	-0.31%	–	91%	45.7%	645 µL/min/mg	2 min	6.11 µM	442 µL/min/mg	3.1 min	> 10 µM	11.3 nM	1610 µL/min/mg	0.9 min	96.9 nM	> 10000 nM	12.6 nM	64%	–
CCNC(=O)[C@@H]1C=C2c3cccc4[nH]cc(c34)C[C@H]2N(Cc2cccc(O)c2)C1 [Compound 64, (6aR,9R)—N-ethyl-7-(3-hydroxybenzyl)-4,6,6a,7,8,9-hexahydroindolo[4,3-fg]quinoline-9-carboxamide]	87%	1.49%	–	75.8%	68.8%	222 µL/min/mg	6.2 min	0.424 µM	100 µL/min/mg	13.8 min	> 10 µM	12 nM	312 µL/min/mg	4.4 min	53.3 nM	4520 nM	23.2 nM	52%	–
CC[C@@H](C)NC(=O)[C@H]1C=C2c3cccc4[nH]cc(c34)C[C@H]2N(C)C1 [Int8a]	104%	6.87%	–	72.6%	–	–	–	–	–	–	–	–	–	–	–	–	–	35.5%	93.7%
CCC(CC)NC(=O)[C@H]1C=C2c3cccc4[nH]cc(c34)C[C@H]2N(C)C1 [Int14a]	70.3%	1.86%	–	33%	–	–	–	–	–	–	–	–	–	–	–	–	–	44.3%	119%
CCC[C@@H](C)NC(=O)[C@H]1C=C2c3cccc4[nH]cc(c34)C[C@H]2N(C)C1 [Int17a]	88.5%	5.63%	–	63.3%	–	–	–	–	–	–	–	–	–	–	–	–	–	43.7%	112%
